Measurements from article PMC11340245, “Studies of Protein Binding to Biomimetic Membranes Using a Group of Uniform Materials Based on Organic Salts Derived From 8-Anilino-1-naphthalenesulfonic Acid” (Applied Spectroscopy, 2024).

Experiment: Thermal stability by thermogravimetric analysis (TGA)
Format: physicochemical
Details: heated from 25 to 595 °C, ramp rate 10 °C min^–1
Protocol: The thermal stability of [N4444][ANS] and [P4444][ANS] was investigated using a TA Discovery TGA 550 instrument. GUMBOS were heated from 25 to 595 °C using a ramp rate of 10 °C min^–1. The melting points of these compounds were also determined using a MEL-TEMP apparatus. Membrane partition and competitive binding assays were performed on a BioTek Cytation 3 imaging reader.
Thermal behaviors of [N4444][ANS] and [P4444][ANS] GUMBOS were further investigated using TGA. Figure S14 and Table S2 (Supplemental Material) present the weight loss curves and temperatures at which GUMBOS weight was reduced by 50% (T50%), respectively.

## CCCC[P+](CCCC)(CCCC)CCCC.O=S(=O)([O-])c1cccc2cccc(Nc3ccccc3)c12 [[P4444][ANS]]
  T50% (half weight loss temperature): 422 ºC

## CCCC[N+](CCCC)(CCCC)CCCC.O=S(=O)([O-])c1cccc2cccc(Nc3ccccc3)c12 [[N4444][ANS]]
  T50% (half weight loss temperature): 308 ºC
